# Experimental data: patent publication US20230227917A1, “PREDICTING RESPONSE TO PD-1 AXIS INHIBITORS” (Hoffmann-La Roche Inc., priority 2020, published 2023)
# What was measured:
# Assay type in all cases: in vivo, human
# [1] = test system: patients with locally advanced or metastatic Urothelial Bladder Cancer; assay: Survival by stem cell score, Phase III trial IMvigor211 (NCT02302807), Atezolizumab vs standard of care
# Text: (§1) We hypothesized that patients with a low abundance of stem cell maintenance-related cancer cells may respond to PD-L1 blockade leading to beneficial effect in patients who received the treatment. We analyzed 750 patients with locally advanced or metastatic urothelial bladder cancer who received Atezolizumab (n=369), Paclitaxel (n=123), Vinflunine (n=194) or Docetaxel (n=41) in a Phase III clinical trial (NCT02302807, IMvigor 211) (https://clinicaltrials.gov/ct2/show/NCT02302807). This study was sponsored by Genentech Inc., a member of the Roche Group, which provided the study drug. The protocol and its amendments were approved by the relevant institutional review boards or ethics committees, and all participants provided written informed consent. This study was conducted in accordance with the Declaration of Helsinki and International Conference on Harmonization Guidelines for Good Clinical Practice.
# (§2) Tumor specimens at baseline were archived and taken for gene expression profiling performed by RNA Sequencing (RNA-Seq). In total, 144 human stem cell related genes derived from Gene Ontology were selected and further processed resulting in a selected a list of 4 genes consisting of ASPM, CNOT3, LRPS, and PBX1, which are associated with abundance of stem cell maintenance-related cancer cells. The log2 CPM expression values of each selected gene across the whole cohort were divided at medium expression level for the higher expression ones (+) and lower/no expression ones (−). Using in-house R scripts, the two defined subgroups were plotted against the Kaplan-Meier survival curves. […] Table 3 summarizes the median survival as well as HR per single gene used for the stem cell maintenance-related cancer cells signature.
# (§3) As several genes linked to stem cell maintenance-related cancer cells were associated with the survival advantages, we investigated the impact of multiple genes involved in stem cell maintenance-related cancer cells by defining a cumulative cancer stem cell gene score reflecting the cumulative expression of these marker genes. Each gene's expression is first standardized by a z-score:
# where μ and μ are estimated in the entire cohort or in the selected subgroups. After the standardization step, these standardized z-score values are averaged across genes within each patient. The IMvigor211 cohort was corrected for the sex of patient, age as well as smoking status. […] In addition, we also identified an adavantage in progression-free survival.
# [2] = test system: patients with locally advanced or metastatic Non-Small Cell Lung Cancer; assay: Survival by stem cell score, Phase II trial BIRCH (NCT02031458), Atezolizumab
# Text: as §1, with “597” for “750”, “non-small cell lung” for “locally advanced or metastatic urothelial bladder”, “Atezolizumab” for “Atezolizumab (n=369), Paclitaxel (n=123), Vinflunine (n=194) or Docetaxel (n=41)”, “II” for “III”, “(NCT02031458, BIRCH) (https://clinicaltrials.gov/ct2/show/NCT02031458).” for “(NCT02302807, IMvigor 211) (https://clinicaltrials.gov/ct2/show/NCT02302807).”
# as §2, with “Sequencing (RNA-Seq).).” for “Sequencing (RNA-Seq).”, “Table 2” for “Table 3”
# as §3
# where μ and μ are estimated in the entire cohort or in the selected subgroups. After the standardization step, these standardized z-score values are averaged across genes within each patient. The BIRCH cohort was corrected for the sex of patient, age as well as smoking status. […] In addition, we also identified an advantage in progression-free survival.
# [3] = test system: patients with locally advanced or metastatic Non-Small Cell Lung Cancer; assay: Survival by stem cell score, Phase III trial OAK (NCT02008227), Atezolizumab vs Docetaxel; details: for HR overall survival, score low vs high: within treatment
# Text: We hypothesized that patients with a low abundance of stem cell maintenance-related cancer cells may respond to PD-L1 blockade leading to beneficial effect in patients who received the treatment. We analyzed 739 patients with non-small cell lung cancer who received Atezolizumab (MPDL3280A, n=358) and Docetaxel (n=381) in a Phase III clinical trial (NCT02008227, OAK) (https://clinicaltrials.gov/ct2/show/NCT02008227). This study was sponsored by Genentech Inc., a member of the Roche Group, which provided the study drug.
# The protocol and its amendments were approved by the relevant institutional review boards or ethics committees, and all participants provided written informed consent. This study was conducted in accordance with the Declaration of Helsinki and International Conference on Harmonization Guidelines for Good Clinical Practice. Tumor specimens at baseline were archived and taken for gene expression profiling performed by RNA Sequencing (RNA-Seq). In total, 144 human stem cell related genes derived from Gene Ontology were selected and further processed resulting in a selected a list of 4 genes consisting of ASPM, CNOT3, LRPS, and PBX1, which are associated with abundance of stem cell maintenance-related cancer cells. The log2 CPM expression values of each selected gene across the whole cohort were divided at medium expression level for the higher expression ones (+) and lower/no expression ones (−). Using in-house R scripts, the two defined subgroups were plotted against the Kaplan-Meier survival curves.
# as §3
# where μ and μ are estimated in the entire cohort or in the selected subgroups. After the standardization step, these standardized z-score values are averaged across genes within each patient. The OAK cohort was corrected for the sex of patient, age, histolog as well as PD-L1 status. […] In addition, we also identified an advantage in progression-free survival.
# [4] = cumulative cancer stem cell score
# [5] = cumulative cancer stem cell score high
# [6] = cumulative cancer stem cell score low
# [7] = gene ASPM, Stem cell score high
# [8] = gene CNOT3, Stem cell score high
# [9] = gene CNOT3, Stem cell score low
# [10] = gene LRP5, Stem cell score high
# [11] = gene PBX1, Stem cell score high
# [12] = cumulative cancer stem cell score (ASPM, CNOT3, LRP5, PBX1) low
compound,measurement,setting,value
atezolizumab,"HR overall survival, score low vs high",[1]; [4],0.64
same,"HR progression-free survival, score low vs high",[1]; [4],0.69
same,median overall survival,[1]; [5],~211 days
same,median progression-free survival,[1]; [5],~63 days
same,median overall survival,[1]; [6],~357 days
same,median progression-free survival,[1]; [6],~66 days
same,"HR overall survival, predictive effect for Atezolizumab","[1]; cumulative stem cell score low groups, Atezolizumab vs standard of care",0.70
same,HR (low vs high),[1]; gene ASPM,HR: 1.05
same,Median survival,[1]; [7],271 days
same,HR (Atezo vs SoC),"[1]; gene ASPM, Stem cell score low",HR: 0.93
same,Median survival,"[1]; gene ASPM, Stem cell score low",257 days
same,HR (low vs high),[1]; gene CNOT3,HR: 0.85
same,Median survival,[1]; [8],242 days
same,HR (Atezo vs SoC),[1]; [9],HR: 0.83
same,Median survival,[1]; [9],297 days
same,HR (low vs high),[1]; gene LRP5,HR: 0.76
same,Median survival,[1]; [10],241 days
same,HR (Atezo vs SoC),"[1]; gene LRP5, Stem cell score low",HR: 0.74
same,Median survival,"[1]; gene LRP5, Stem cell score low",298 days
same,HR (low vs high),[1]; gene PBX1,HR: 0.74
same,Median survival,[1]; [11],247 days
same,HR (Atezo vs SoC),"[1]; gene PBX1, Stem cell score low",HR: 0.67
same,Median survival,"[1]; gene PBX1, Stem cell score low",279 days
same,"HR overall survival, score low vs high",[2]; [4],0.77
same,"HR progression-free survival, score low vs high",[2]; [4],0.74
same,median overall survival,[2]; [5],~437 days
same,median progression-free survival,[2]; [5],~89 days
same,median overall survival,[2]; [6],~583 days
same,median progression-free survival,[2]; [6],~127 days
same,HR (low vs high),[2]; gene ASPM,HR: 0.78
same,Median survival,[2]; [7],457 days
same,Median survival,"[2]; gene ASPM, Stem cell score low",566 days
same,HR (low vs high),[2]; gene CNOT3,HR: 0.88
same,Median survival,[2]; [8],482 days
same,Median survival,[2]; [9],510 days
same,HR (low vs high),[2]; gene LRP5,HR: 1.02
same,Median survival,[2]; [10],498 days
same,Median survival,"[2]; gene LRP5, Stem cell score low",471 days
same,HR (low vs high),[2]; gene PBX1,HR: 1.02
same,Median survival,[2]; [11],510 days
same,Median survival,"[2]; gene PBX1, Stem cell score low",471 days
same,"HR progression-free survival, score low vs high",[3]; [4],0.69
same,median overall survival,[3]; [12],492 days
same,median overall survival,[3]; [5],~257 days
same,median progression-free survival,[3]; [5],~51 days
same,median progression-free survival,[3]; [6],~86 days
same,"HR overall survival, score low vs high",[3]; [4],0.67
same,"HR overall survival, predictive effect for Atezolizumab","[3]; cumulative stem cell score low group, Atezolizumab vs Docetaxel",0.72
same,Median survival,[3]; [7],256 days
same,Median survival,"[3]; gene ASPM, Stem cell score low",467 days
same,HR (Atezo vs SoC),"[3]; gene ASPM, Stem cell score low, Atezolizumab vs Docetaxel",HR: 0.84
same,HR (low vs high),"[3]; gene ASPM, score low vs high within treatment",HR: 0.65
same,Median survival,[3]; [8],337 days
same,Median survival,[3]; [9],433 days
same,HR (Atezo vs SoC),"[3]; gene CNOT3, Stem cell score low, Atezolizumab vs Docetaxel",HR: 0.83
same,HR (low vs high),"[3]; gene CNOT3, score low vs high within treatment",HR: 0.89
same,Median survival,[3]; [10],384 days
same,Median survival,"[3]; gene LRP5, Stem cell score low",405 days
same,HR (Atezo vs SoC),"[3]; gene LRP5, Stem cell score low, Atezolizumab vs Docetaxel",HR: 0.83
same,HR (low vs high),"[3]; gene LRP5, score low vs high within treatment",HR: 0.97
same,Median survival,[3]; [11],329 days
same,Median survival,"[3]; gene PBX1, Stem cell score low",456 days
same,HR (Atezo vs SoC),"[3]; gene PBX1, Stem cell score low, Atezolizumab vs Docetaxel",HR: 0.92
same,HR (low vs high),"[3]; gene PBX1, score low vs high within treatment",HR: 0.89
CC(=O)O[C@@]12CO[C@@H]1C[C@H](O)[C@@]1(C)C(=O)[C@H](O)C3=C(C)[C@@H](OC(=O)[C@H](O)[C@@H](NC(=O)OC(C)(C)C)c4ccccc4)C[C@@](O)([C@@H](OC(=O)c4ccccc4)[C@H]21)C3(C)C [Docetaxel],median overall survival,[3]; [12],334 days
same,median overall survival,[3]; [5],282 days
same,"HR overall survival, score low vs high",[3]; [4],0.76
same,Median survival,[3]; [7],270 days
same,Median survival,"[3]; gene ASPM, Stem cell score low",365 days
same,Median survival,[3]; [8],299 days
same,Median survival,[3]; [9],339 days
same,Median survival,[3]; [10],320 days
same,Median survival,"[3]; gene LRP5, Stem cell score low",312 days
same,Median survival,[3]; [11],262 days
same,Median survival,"[3]; gene PBX1, Stem cell score low",356 days
